For 1 molecule, Activity results are on record in ChEMBL document CHEMBL5154674, “ARN25068, a versatile starting point towards triple GSK-3β/FYN/DYRK1A inhibitors to tackle tau-related neurological disorders” (Eur J Med Chem, 2022).

For the data set, the system named is U2OS. Briefly: Cytotoxic effect on human U2OS cells transfected with Tau0N4R-TM-tGFP at 25 to 100 uM by fluorescence based microscopy. In kind it is toxicity, cell-based. Particulars: dose 25-100 µM.

`c1ccc(CNc2nc(Nc3cc(C4CC4)[nH]n3)c3sccc3n2)cc1`: the Activity entry is reported as “Toxic”.
